In US6355799B1, “Substituted benzene compounds, process for their preparation, and herbicidal and defoliant compositions containing them” (ISK Americas Incorporated, priority 1997, dated 2002):

Columns and labels:
Type in all cases: in vivo
[1] = tested on: large crabgrass (Digitaria sanguinalis, DIGSA); experiment: Post-emerge test, greenhouse herbicide activity screening; conditions: post-emerge; for Post-emerge Herbicidal Activity DIGSA (phytotoxicity rating): 14 days after application, rating scale 0-100; for Post-emerge Herbicidal Activity DIGSA: phytotoxicity rating 0-100 at 14 days after application
Outline: (§1)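 Each test used a mechanized track sprayer delivering 187 l/ha of acetone solution at 15–1000 g ai/ha. Post-emerge foliage at 2–3 leaves was treated with added 0.25% v/v non-ionic surfactant and bottom-watered only. Injury was assessed on day 14, where 100 means total kill.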

[2] = tested on: lambsquarters (Chenopodium album, CHEAL); experiment: as above; conditions: post-emerge; for Post-emerge Herbicidal Activity CHEAL (phytotoxicity rating): 14 days after application, rating scale 0-100; for Post-emerge Herbicidal Activity CHEAL: phytotoxicity rating 0-100 at 14 days after application
Outline: as §1

[3] = tested on: redroot pigweed (Amaranthus retroflexus, AMARE); experiment: as above; conditions: post-emerge; for Post-emerge Herbicidal Activity AMARE (phytotoxicity rating): 14 days after application; for Post-emerge Herbicidal Activity AMARE: phytotoxicity rating 0-100 at 14 days after application
Outline: as §1

[4] = tested on: velvetleaf (Abutilon theophrasti, ABUTH); experiment: as above; conditions: post-emerge; for Post-emerge Herbicidal Activity ABUTH (phytotoxicity rating): 14 days after application, rating scale 0-100; for Post-emerge Herbicidal Activity ABUTH: phytotoxicity rating 0-100 at 14 days after application
Outline: as §1

[5] = tested on: barnyardgrass (Echinochloa crus-galli, ECHCG); experiment: as above; conditions: post-emerge; for Post-emerge Herbicidal Activity ECHCG (phytotoxicity rating): 14 days after application, rating scale 0-100; for Post-emerge Herbicidal Activity ECHCG: phytotoxicity rating 0-100 at 14 days after application
Outline: as §1

[6] = tested on: green foxtail (Setaria viridis, SETVI); experiment: as above; conditions: post-emerge; for Post-emerge Herbicidal Activity SETVI (phytotoxicity rating): 14 days after application, rating scale 0-100; for Post-emerge Herbicidal Activity SETVI: phytotoxicity rating 0-100 at 14 days after application
Outline: as §1

[7] = tested on: ivyleaf morningglory (Ipomoea hederacea, IPOHE); experiment: as above; conditions: post-emerge; for Post-emerge Herbicidal Activity IPOHE (phytotoxicity rating): 14 days after application, rating scale 0-100; for Post-emerge Herbicidal Activity IPOHE: phytotoxicity rating 0-100 at 14 days after application
Outline: as §1

[8] = tested on: sicklepod (Cassia obtusifolia, CASOB); experiment: as above; conditions: post-emerge; for Post-emerge Herbicidal Activity CASOB (phytotoxicity rating): 14 days after application, rating scale 0-100; for Post-emerge Herbicidal Activity CASOB: phytotoxicity rating 0-100 at 14 days after application
Outline: as §1

[9] = tested on: field corn (Zea mays L., var. Dekalb 535, CORN); experiment: Pre-emerge test, crop safety; conditions: pre-emerge; for phytotoxicity rating CORN: 14 days after application, rating scale 0-100; for Pre-emerge Herbicidal Activity CORN: crop damage, phytotoxicity rating 0-100 at 14 days after application
Outline: (§2)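 Herbicidal damage is scored 0 (none) to 100 (complete plant death) two weeks after a simulated field spray. Rates span 15–1000 g ai/ha, delivered in acetone at 187 l/ha. For post-emergence treatments, plants have 2–3 leaves and the spray carries 0.25% v/v non-ionic surfactant.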

[10] = tested on: upland rice (Oryza sp., var. Tebonnet, RICE); experiment: Pre-emerge test, crop safety; conditions: pre-emerge; for phytotoxicity rating RICE: 14 days after application, rating scale 0-100; for Pre-emerge Herbicidal Activity RICE: crop damage, phytotoxicity rating 0-100 at 14 days after application
Outline: as §2

[11] = tested on: redroot pigweed (Amaranthus retroflexus, AMARE); experiment: Pre-emerge test, greenhouse herbicide activity screening; conditions: pre-emerge; for phytotoxicity rating AMARE: 14 days after application, rating scale 0-100; for Pre-emerge Herbicidal Activity AMARE: phytotoxicity rating 0-100 at 14 days after application
Outline: as §2

[12] = tested on: field corn (Zea mays L., var. Dekalb 535, CORN); experiment: Post-emerge test, crop safety; conditions: post-emerge; for Post-emerge Herbicidal Activity CORN (crop damage rating): 14 days after application, rating scale 0-100; for Post-emerge Herbicidal Activity CORN: crop damage rating 0-100 at 14 days after application
Outline: (§3)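 Sandy loam pots; pre-emerge: sown 1 d pre-spray, surface-watered after, then bottom-watered. Post-emerge: sown 8–21 d before, 2–3 leaf stage, + 0.25% v/v NIS, bottom-watered. Acetone, 187 l/ha track spray, 15–1000 g ai/ha. 0–100 injury score, day 14.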

[13] = tested on: upland rice (Oryza sp., var. Tebonnet, RICE); experiment: Post-emerge test, crop safety; conditions: post-emerge; for Post-emerge Herbicidal Activity RICE (crop damage rating): 14 days after application, rating scale 0-100; for Post-emerge Herbicidal Activity RICE: crop damage rating 0-100 at 14 days after application
Outline: as §3

[14] = tested on: large crabgrass (Digitaria sanguinalis, DIGSA); experiment: Pre-emerge test, greenhouse herbicide activity screening; conditions: pre-emerge; for phytotoxicity rating DIGSA: 14 days after application, rating scale 0-100; for Pre-emerge Herbicidal Activity DIGSA: phytotoxicity rating 0-100 at 14 days after application
Outline: as §3

[15] = tested on: lambsquarters (Chenopodium album, CHEAL); experiment: as above; conditions: pre-emerge; for phytotoxicity rating CHEAL: 14 days after application, rating scale 0-100; for Pre-emerge Herbicidal Activity CHEAL: phytotoxicity rating 0-100 at 14 days after application
Outline: as §3

[16] = tested on: velvetleaf (Abutilon theophrasti, ABUTH); experiment: as above; conditions: pre-emerge; for phytotoxicity rating ABUTH: 14 days after application, rating scale 0-100; for Pre-emerge Herbicidal Activity ABUTH: phytotoxicity rating 0-100 at 14 days after application
Outline: as §3

[17] = tested on: barnyardgrass (Echinochloa crus-galli, ECHCG); experiment: as above; conditions: pre-emerge; for phytotoxicity rating ECHCG: 14 days after application, rating scale 0-100; for Pre-emerge Herbicidal Activity ECHCG: phytotoxicity rating 0-100 at 14 days after application
Outline: as §3

[18] = tested on: green foxtail (Setaria viridis, SETVI); experiment: as above; conditions: pre-emerge; for phytotoxicity rating SETVI: 14 days after application, rating scale 0-100; for Pre-emerge Herbicidal Activity SETVI: phytotoxicity rating 0-100 at 14 days after application
Outline: as §3

[19] = tested on: ivyleaf morningglory (Ipomoea hederacea, IPOHE); experiment: as above; conditions: pre-emerge; for phytotoxicity rating IPOHE: 14 days after application, rating scale 0-100; for Pre-emerge Herbicidal Activity IPOHE: phytotoxicity rating 0-100 at 14 days after application
Outline: as §3

[20] = tested on: sicklepod (Cassia obtusifolia, CASOB); experiment: as above; conditions: pre-emerge; for phytotoxicity rating CASOB: 14 days after application, rating scale 0-100; for Pre-emerge Herbicidal Activity CASOB: phytotoxicity rating 0-100 at 14 days after application
Outline: as §3

[21] = tested on: johnsongrass (Sorghum halepense, SORHA); experiment: as above; conditions: pre-emerge; for phytotoxicity rating SORHA: 14 days after application, rating scale 0-100; for Pre-emerge Herbicidal Activity SORHA: phytotoxicity rating 0-100 at 14 days after application
Outline: as §3

SMILES: COc1c(Cl)cc(F)c(-n2c(=O)cc(C(F)(F)F)n(C)c2=O)c1NNC(=O)Oc1ccccc1 [15-7]
- Post-emerge Herbicidal Activity DIGSA (phytotoxicity rating) ([1]; 63 g ai/ha): 20
- Post-emerge Herbicidal Activity DIGSA (phytotoxicity rating) ([1]; 250 g ai/ha): 75
- Post-emerge Herbicidal Activity CHEAL (phytotoxicity rating) ([2]; 63 g ai/ha): 100
- Post-emerge Herbicidal Activity CHEAL (phytotoxicity rating) ([2]; 250 g ai/ha): 100
- Post-emerge Herbicidal Activity AMARE (phytotoxicity rating) ([3]; 63 g ai/ha, rating scale 0-100 (0 no damage, 100 complete death)): 100
- Post-emerge Herbicidal Activity AMARE (phytotoxicity rating) ([3]; 250 g ai/ha, rating scale 0-100): 100
- Post-emerge Herbicidal Activity ABUTH (phytotoxicity rating) ([4]; 63 g ai/ha): 100
- Post-emerge Herbicidal Activity ABUTH (phytotoxicity rating) ([4]; 250 g ai/ha): 100
- Post-emerge Herbicidal Activity ECHCG (phytotoxicity rating) ([5]; 63 g ai/ha): 40
- Post-emerge Herbicidal Activity ECHCG (phytotoxicity rating) ([5]; 250 g ai/ha): 95
- Post-emerge Herbicidal Activity SETVI (phytotoxicity rating) ([6]; 63 g ai/ha): 30
- Post-emerge Herbicidal Activity SETVI (phytotoxicity rating) ([6]; 250 g ai/ha): 90
- Post-emerge Herbicidal Activity IPOHE (phytotoxicity rating) ([7]; 63 g ai/ha): 100
- Post-emerge Herbicidal Activity IPOHE (phytotoxicity rating) ([7]; 250 g ai/ha): 100
- Post-emerge Herbicidal Activity CASOB (phytotoxicity rating) ([8]; 63 g ai/ha): 60
- Post-emerge Herbicidal Activity CASOB (phytotoxicity rating) ([8]; 250 g ai/ha): 100
- phytotoxicity rating CORN ([9]; 63 g ai/ha): 85
- phytotoxicity rating CORN ([9]; 250 g ai/ha): 100
- phytotoxicity rating RICE ([10]; 63 g ai/ha): 90
- phytotoxicity rating RICE ([10]; 250 g ai/ha): 100
- phytotoxicity rating AMARE ([11]; 63 g ai/ha): 100
- phytotoxicity rating AMARE ([11]; 250 g ai/ha): 100
- Post-emerge Herbicidal Activity CORN (crop damage rating) ([12]; 63 g ai/ha): 60
- Post-emerge Herbicidal Activity CORN (crop damage rating) ([12]; 250 g ai/ha): 80
- Post-emerge Herbicidal Activity RICE (crop damage rating) ([13]; 63 g ai/ha): 50
- Post-emerge Herbicidal Activity RICE (crop damage rating) ([13]; 250 g ai/ha): 90
- phytotoxicity rating DIGSA ([14]; 63 g ai/ha): 90
- phytotoxicity rating DIGSA ([14]; 250 g ai/ha): 100
- phytotoxicity rating CHEAL ([15]; 63 g ai/ha): 100
- phytotoxicity rating CHEAL ([15]; 250 g ai/ha): 100
- phytotoxicity rating ABUTH ([16]; 63 g ai/ha): 100
- phytotoxicity rating ABUTH ([16]; 250 g ai/ha): 100
- phytotoxicity rating ECHCG ([17]; 63 g ai/ha): 80
- phytotoxicity rating ECHCG ([17]; 250 g ai/ha): 100
- phytotoxicity rating SETVI ([18]; 63 g ai/ha): 100
- phytotoxicity rating SETVI ([18]; 250 g ai/ha): 100
- phytotoxicity rating IPOHE ([19]; 63 g ai/ha): 95
- phytotoxicity rating IPOHE ([19]; 250 g ai/ha): 100
- phytotoxicity rating CASOB ([20]; 63 g ai/ha): 100
- phytotoxicity rating CASOB ([20]; 250 g ai/ha): 100
- phytotoxicity rating SORHA ([21]; 63 g ai/ha): 95
- phytotoxicity rating SORHA ([21]; 250 g ai/ha): 100

SMILES: COc1c(Cl)cc(F)c(-n2nnn(CCCF)c2=O)c1NC(=O)c1ccc2ccccc2c1 [Compound 5-26]
- Post-emerge Herbicidal Activity DIGSA ([1]; 63 g ai/ha): 20
- Post-emerge Herbicidal Activity DIGSA ([1]; 250 g ai/ha): 30
- Post-emerge Herbicidal Activity CHEAL ([2]; 63 g ai/ha): 100
- Post-emerge Herbicidal Activity CHEAL ([2]; 250 g ai/ha): 100
- Post-emerge Herbicidal Activity AMARE ([3]; 63 g ai/ha): 100
- Post-emerge Herbicidal Activity AMARE ([3]; 250 g ai/ha): 90
- Post-emerge Herbicidal Activity ABUTH ([4]; 63 g ai/ha): 100
- Post-emerge Herbicidal Activity ABUTH ([4]; 250 g ai/ha): 100
- Post-emerge Herbicidal Activity ECHCG ([5]; 63 g ai/ha): 20
- Post-emerge Herbicidal Activity ECHCG ([5]; 250 g ai/ha): 60
- Post-emerge Herbicidal Activity SETVI ([6]; 63 g ai/ha): 40
- Post-emerge Herbicidal Activity SETVI ([6]; 250 g ai/ha): 70
- Post-emerge Herbicidal Activity IPOHE ([7]; 63 g ai/ha): 90
- Post-emerge Herbicidal Activity IPOHE ([7]; 250 g ai/ha): 70
- Post-emerge Herbicidal Activity CASOB ([8]; 63 g ai/ha): 90
- Post-emerge Herbicidal Activity CASOB ([8]; 250 g ai/ha): 100
- Pre-emerge Herbicidal Activity CORN ([9]; rate 63 g ai/ha): 0
- Pre-emerge Herbicidal Activity CORN ([9]; rate 250 g ai/ha): 0
- Pre-emerge Herbicidal Activity RICE ([10]; rate 63 g ai/ha): 15
- Pre-emerge Herbicidal Activity RICE ([10]; rate 250 g ai/ha): 40
- Pre-emerge Herbicidal Activity AMARE ([11]; rate 63 g ai/ha): 100
- Pre-emerge Herbicidal Activity AMARE ([11]; rate 250 g ai/ha): 100
- Post-emerge Herbicidal Activity CORN ([12]; 63 g ai/ha): 10
- Post-emerge Herbicidal Activity CORN ([12]; 250 g ai/ha): 5
- Post-emerge Herbicidal Activity RICE ([13]; 63 g ai/ha): 50
- Post-emerge Herbicidal Activity RICE ([13]; 250 g ai/ha): 60
- Pre-emerge Herbicidal Activity DIGSA ([14]; rate 63 g ai/ha): 30
- Pre-emerge Herbicidal Activity DIGSA ([14]; rate 250 g ai/ha): 80
- Pre-emerge Herbicidal Activity CHEAL ([15]; rate 63 g ai/ha): 100
- Pre-emerge Herbicidal Activity CHEAL ([15]; rate 250 g ai/ha): 100
- Pre-emerge Herbicidal Activity ABUTH ([16]; rate 63 g ai/ha): 70
- Pre-emerge Herbicidal Activity ABUTH ([16]; rate 250 g ai/ha): 100
- Pre-emerge Herbicidal Activity ECHCG ([17]; rate 63 g ai/ha): 20
- Pre-emerge Herbicidal Activity ECHCG ([17]; rate 250 g ai/ha): 30
- Pre-emerge Herbicidal Activity SETVI ([18]; rate 63 g ai/ha): 60
- Pre-emerge Herbicidal Activity SETVI ([18]; rate 250 g ai/ha): 90
- Pre-emerge Herbicidal Activity IPOHE ([19]; rate 63 g ai/ha): 0
- Pre-emerge Herbicidal Activity IPOHE ([19]; rate 250 g ai/ha): 40
- Pre-emerge Herbicidal Activity CASOB ([20]; rate 63 g ai/ha): 10
- Pre-emerge Herbicidal Activity CASOB ([20]; rate 250 g ai/ha): 80
- Pre-emerge Herbicidal Activity SORHA ([21]; rate 63 g ai/ha): 0
- Pre-emerge Herbicidal Activity SORHA ([21]; rate 250 g ai/ha): 30
